Entries after “also recorded” stand apart in the source; their conditions may differ.
Experiments:
E. coli UTI89 = test: Murine UPEC sepsis model; type: in vivo
Method: Murine UPEC sepsis model and treatment with DU011. Groups of five 6-7 week old C57BL/6NCr female mice (purchased from Frederick National Laboratory for Cancer Research) were injected subcutaneously twice daily with 100 μL of 1% DMSO (vehicle control) or DU011 (1 mg/ml) starting 12 hrs prior to the intra peritoneal infection. Weights were recorded twice daily to monitor health of the animals and tolerance to the compound. Mice were challenged by intraperitoneal injection with 10^8 CFU of the indicated E. coli UTI89 in 100 μL of PBS. Briefly, cultures were prepared by diluting overnight cultures (18 hrs) 1:100 into 3 mL of LB supplemented with 1% DMSO final or 100 μM DU011 (1% DMSO final). Shaken cultures were grown at 37° C. for 6 hours to an OD600 of 1.2, and then cells were pelleted and resuspended in 1 mL of PBS. Absorbance was adjusted to OD600 of 0.8 in PBS, and the cultures were then diluted 1:10 in sterile PBS Animals were also given an intraperitoneal dose of 1% DMSO or DU011, in a site different than the administration of bacteria, to ensure sufficient systemic delivery of drug. Animal survival was assessed after 12 hours. Surviving mice were re-dosed according to the treatment groups and continued to be monitored. The experiment was concluded 48 hours post infection. The entire experiment was repeated with similar results.
Throughout each experiment, animals were monitored each 6 hours from the time of infection until conclusion for serious morbidity, including ruffled fur, decreased activity, slowed respirations, and ill appearance. Animals were provided gel packs for easily accessible additional hydration throughout the experiments. When a moribund state was suspected or anticipated by these criteria, animals were immediately euthanized to minimize potential pain and/or suffering. Of the total animals with an outcome categorized as death, the following numbers were euthanized for terminal morbidity prior to septic death (euthanized/total deaths): 3/10, no prior treatment; 3/5 prior chemical treatment of bacteria alone; 0/2 prior chemical treatment of mice alone. Euthanasia for all animals was through complete respiratory cessation using the inhaled anesthetic isoflurane followed by secondary assurance of death using bilateral thoracotomy. All animal experiments were conducted with prior approval from the Institutional Animal Care and Use Committee of Duke University.

in vitro = conditions: human (5637 cells, CC50), Escherichia coli (UTI89, IC50), Fold Selective (CC50/IC50)
Procedure, shortened: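 UTI89 cultures in LB with 0.5% DMSO were preincubated 2 hr at 37 °C with compounds (100 μM in screen), then with K1F phage a further 2 hr. Viability was read as Alamar Blue fluorescence. Phage-lysis inhibition is relative to plate bacterial controls; IC50 by 4-parameter fit locked at 0 and 100.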

[1] = pre-treatment of bacteria without pretreatment of the mice

SMILES: CCOc1ccc(-c2cc(NC(=O)c3c(F)cccc3F)c(C(=O)O)s2)cc1 [ML317, 3-(2,6-difluorobenzamido)-5-(4-ethoxyphenyl)thiophene-2-carboxylic acid]
- Tolerability in mice (E. coli UTI89; 100 μL of 1 mg/ml subcutaneously twice daily, listed as DU011): without evident side effects; also recorded: no detectable adverse effects
- Body weight (E. coli UTI89; [1]): ongoing weight loss
- Survival (E. coli UTI89; [1]): 50%
- Body weight (E. coli UTI89; pretreatment of the bacteria and mice with DU011): recovery of pre-infection weights
- Survival (E. coli UTI89; pretreatment of the bacteria and mice with DU011, 10^8 CFU UTI89 intraperitoneal, 48 hrs): 100%
- Body weight (E. coli UTI89; subcutaneous DU011 and untreated UTI89): stabilization of weights
- Survival (E. coli UTI89; subcutaneous DU011 and untreated UTI89, 48 hrs): 80%
- selectivity ratio (in vitro; commercial sample, SID 103147605): 10.5
- selectivity ratio (in vitro; synthesized sample, SID 126497311): 27.3

— patent US9688653B2, “Ethoxyphenyl thienyl compounds and methods for the treatment of bacterial infections” (Duke University, priority 2013, dated 2017)
